Test results taken from patent US8673904B2, “Epoxide inhibitors of cysteine proteases” (The Board of Trustees of the Leland Stanford Junior …, priority 2006, dated 2014).

These compounds were tested on cathepsin targets (assay: Cathepsin targets of the compounds (Table 4)). Conditions: cathepsin target(s) inhibited; General = all cathepsins.
Format: biochemical, rat
Experimental: Also included in the table for comparison are known compounds JPMOEt and JPMOH (also known as JPM-565). See Meara and Rich, J. Med. Chem. 39:3357-3366, 1996; Bogyo et al, Chem. Biol. 7:27-38, 2000; and Joyce et al., Cancer Cell 5:443-453, 2004. The table also lists cathepsin targets and measured IC50 values for specific compounds. To determine these values, 1 mg/ml of rat liver lysate was incubated with a series of concentrations of the inhibitor for 20 minutes. Then, 1 ul of a radiolabled general cathepsin probe, DCG-04, was added to the solutions and incubated for 1 hour. After fixing and drying the gel, the residual enzyme activity was measured using ImageJ software. The measurements were then transferred to GraphPad Prism 4 to calculate the IC50 values.
For `CC(=O)NCCNC(=O)[C@H]1O[C@@H]1C(=O)N[C@@H](Cc1ccc(C)cc1)C(=O)N[C@@H](Cc1ccc(O)cc1)C(N)=O` [Compound 1], the Target was “Cat B”. With `Cc1ccc(C[C@H](NC(=O)C2OC2C(=O)NCc2ccccc2)C(=O)N[C@@H](Cc2ccc(O)cc2)C(N)=O)cc1` (stereo partly drawn) [Compound 2] the Target was “Cat B”. In the case of `Cc1ccc(C[C@H](NC(=O)[C@H]2O[C@@H]2C(=O)NCCc2ccccn2)C(=O)N[C@@H](Cc2ccc(O)cc2)C(N)=O)cc1` [Compound 3], the Target was “Cat B”. With `Cc1ccc(C[C@H](NC(=O)C2OC2C(=O)NCCN2CCOCC2)C(=O)N[C@@H](Cc2ccc(O)cc2)C(N)=O)cc1` (stereo partly drawn) [Compound 4] the Target was “Cat B”. For `Cc1ccc(C[C@H](NC(=O)C2OC2C(=O)NCCc2ccc(-c3ccccc3)cc2)C(=O)N[C@@H](Cc2ccc(O)cc2)C(N)=O)cc1` (stereo partly drawn) [Compound 5], the Target was “Cat B”. With `Cc1ccc(C[C@H](NC(=O)[C@H]2O[C@@H]2C(=O)NCCc2ccc(O)cc2)C(=O)N[C@@H](Cc2ccc(O)cc2)C(N)=O)cc1` [Compound 6] the Target was “Cat B”. `Cc1ccc(C[C@H](NC(=O)[C@H]2OC2C(=O)NCCN2CCCC2)C(=O)N[C@@H](Cc2ccc(O)cc2)C(N)=O)cc1` (stereo partly drawn) [Compound 7] was tested, and the Target was “Cat B”. For `Cc1ccc(C[C@H](NC(=O)[C@H]2O[C@@H]2C(=O)NCc2cccc3ccccc23)C(=O)N[C@@H](Cc2ccc(O)cc2)C(N)=O)cc1` [Compound 8], the Target was “Cat B”. For `Cc1ccc(C[C@H](NC(=O)C2OC2C(=O)NCCN2CCCCC2)C(=O)N[C@@H](Cc2ccc(O)cc2)C(N)=O)cc1` (stereo partly drawn) [Compound 9], the Target was “Cat B”. In the case of `Cc1ccc(C[C@H](NC(=O)C2OC2C(=O)N[C@H](C)c2ccccc2)C(=O)N[C@@H](Cc2ccc(O)cc2)C(N)=O)cc1` (stereo partly drawn) [Compound 10], the Target was “Cat B”. In the case of `Cc1ccc(C[C@H](NC(=O)C2O[C@@H]2C(=O)NN2CCN(C)CC2)C(=O)N[C@@H](Cc2ccc(O)cc2)C(N)=O)cc1` (stereo partly drawn) [Compound 11], the Target was “Cat B”. In the case of `Cc1ccc(C[C@H](NC(=O)C2OC2C(=O)NCCCO)C(=O)N[C@@H](Cc2ccc(O)cc2)C(N)=O)cc1` (stereo partly drawn) [Compound 12], the Target was “Cat B”. For `Cc1ccc(C[C@H](NC(=O)C2OC2C(=O)NCCCCCCO)C(=O)N[C@@H](Cc2ccc(O)cc2)C(N)=O)cc1` (stereo partly drawn) [Compound 13], the Target was “Cat B”. In the case of `CCNC(=O)C1OC1C(=O)N[C@@H](Cc1ccc(C)cc1)C(=O)N[C@@H](Cc1ccc(O)cc1)C(N)=O` (stereo partly drawn) [Compound 14], the Target was “Cat B”. For `Cc1ccc(C[C@H](NC(=O)C2OC2C(=O)NCC(N)=O)C(=O)N[C@@H](Cc2ccc(O)cc2)C(N)=O)cc1` (stereo partly drawn) [Compound 15], the Target was “Cat B”. With `Cc1ccc(C[C@H](NC(=O)C2OC2C(=O)NCC(C)C)C(=O)N[C@@H](Cc2ccc(O)cc2)C(N)=O)cc1` (stereo partly drawn) [Compound 17] the Target was “Cat B”. In the case of `CCOC(=O)C1OC1C(=O)N[C@@H](Cc1ccc(C)cc1)C(=O)N[C@@H](Cc1ccc(O)cc1)C(N)=O` (stereo partly drawn) [Compound 18], the Target was “Cat B”. For `Cc1ccc(C[C@H](NC(=O)[C@H]2OC2C(=O)O)C(=O)N[C@@H](Cc2ccc(O)cc2)C(N)=O)cc1` (stereo partly drawn) [Compound 19], the Target was “Cat B”. With `CC(=O)NCCNC(=O)C1O[C@@H]1C(=O)N[C@@H](CC(C)C)C(=O)N[C@@H](Cc1ccc(O)cc1)C(N)=O` (stereo partly drawn) [Compound 20] the Target was “Cat B”. For `CC(C)C[C@H](NC(=O)[C@H]1OC1C(=O)NCc1ccccc1)C(=O)N[C@@H](Cc1ccc(O)cc1)C(N)=O` (stereo partly drawn) [Compound 21], the Target was “Cat B”. In the case of `CC(C)C[C@H](NC(=O)C1OC1C(=O)NCCc1ccccn1)C(=O)N[C@@H](Cc1ccc(O)cc1)C(N)=O` (stereo partly drawn) [Compound 22], the Target was “Cat B”. `CC(C)C[C@H](NC(=O)C1OC1C(=O)NCCN1CCOCC1)C(=O)N[C@@H](Cc1ccc(O)cc1)C(N)=O` (stereo partly drawn) [Compound 23] was tested, and the Target was “Cat B”. `CC(C)C[C@H](NC(=O)C1OC1C(=O)NCCc1ccc(-c2ccccc2)cc1)C(=O)N[C@@H](Cc1ccc(O)cc1)C(N)=O` (stereo partly drawn) [Compound 24] was tested, and the Target was “Cat B”. In the case of `CC(C)C[C@H](NC(=O)[C@H]1OC1C(=O)NCCN1CCCC1)C(=O)N[C@@H](Cc1ccc(O)cc1)C(N)=O` (stereo partly drawn) [Compound 26], the Target was “Cat B”. In the case of `CC(C)C[C@H](NC(=O)[C@H]1O[C@@H]1C(=O)NCc1cccc2ccccc12)C(=O)N[C@@H](Cc1ccc(O)cc1)C(N)=O` [Compound 27], the Target was “Cat B”. `CC(C)C[C@H](NC(=O)[C@H]1OC1C(=O)NCCN1CCCCC1)C(=O)N[C@@H](Cc1ccc(O)cc1)C(N)=O` (stereo partly drawn) [Compound 28] was tested, and the Target was “Cat B”. For `CC(C)C[C@H](NC(=O)[C@H]1OC1C(=O)N[C@H](C)c1ccccc1)C(=O)N[C@@H](Cc1ccc(O)cc1)C(N)=O` (stereo partly drawn) [Compound 29], the Target was “Cat B”. For `CC(C)C[C@H](NC(=O)C1OC1C(=O)NN1CCN(C)CC1)C(=O)N[C@@H](Cc1ccc(O)cc1)C(N)=O` (stereo partly drawn) [Compound 30], the Target was “Cat B”. For `CC(C)C[C@H](NC(=O)C1OC1C(=O)NCCCCCCO)C(=O)N[C@@H](Cc1ccc(O)cc1)C(N)=O` (stereo partly drawn) [Compound 32], the Target was “Cat B”. In the case of `CCNC(=O)C1OC1C(=O)N[C@@H](CC(C)C)C(=O)N[C@@H](Cc1ccc(O)cc1)C(N)=O` (stereo partly drawn) [Compound 33], the Target was “Cat B”. In the case of `CC(C)C[C@H](NC(=O)C1OC1C(=O)NCC(N)=O)C(=O)N[C@@H](Cc1ccc(O)cc1)C(N)=O` (stereo partly drawn) [Compound 34], the Target was “Cat B”. In the case of `CC(C)C[C@H](NC(=O)[C@H]1OC1C(=O)NCC(=O)O)C(=O)N[C@@H](Cc1ccc(O)cc1)C(N)=O` (stereo partly drawn) [Compound 35], the Target was “Cat B”. For `CC(C)CNC(=O)C1OC1C(=O)N[C@@H](CC(C)C)C(=O)N[C@@H](Cc1ccc(O)cc1)C(N)=O` (stereo partly drawn) [Compound 36], the Target was “Cat B”. In the case of `CC(C)C[C@H](NC(=O)C1OC1C(=O)N[C@@H](C)c1ccccc1)C(=O)N[C@@H](Cc1ccc(O)cc1)C(N)=O` (stereo partly drawn) [Compound 37], the Target was “Cat B”. For `CC(C)C[C@H](NC(=O)C1OC1C(=O)NCCO)C(=O)N[C@@H](Cc1ccc(O)cc1)C(N)=O` (stereo partly drawn) [Compound 38], the Target was “Cat B”. In the case of `CC(=O)NCCNC(=O)C1OC1C(=O)N[C@@H](CC(C)C)C(=O)N[C@@H](Cc1ccc(O)cc1)C(N)=O` (stereo partly drawn) [Compound 41], the Target was “Cat B”. In the case of `CC(C)C[C@H](NC(=O)[C@@H]1O[C@H]1C(=O)NCc1ccccc1)C(=O)N[C@@H](Cc1ccc(O)cc1)C(N)=O` [Compound 42], the Target was “Cat B”. For `CC(C)C[C@H](NC(=O)C1O[C@H]1C(=O)NCCc1ccccn1)C(=O)N[C@@H](Cc1ccc(O)cc1)C(N)=O` (stereo partly drawn) [Compound 43], the Target was “Cat B”. `CC(C)C[C@H](NC(=O)C1OC1C(=O)NCCc1ccc(-c2ccccc2)cc1)C(=O)N[C@@H](Cc1ccc(O)cc1)C(N)=O` (stereo partly drawn) [Compound 45] was tested, and the Target was “Cat B”. `CC(C)C[C@H](NC(=O)[C@@H]1O[C@H]1C(=O)NCc1cccc2ccccc12)C(=O)N[C@@H](Cc1ccc(O)cc1)C(N)=O` [Compound 48] was tested, and the Target was “Cat B”. `CC(C)C[C@H](NC(=O)C1O[C@H]1C(=O)NCCN1CCCCC1)C(=O)N[C@@H](Cc1ccc(O)cc1)C(N)=O` (stereo partly drawn) [Compound 49] was tested, and the Target was “Cat B”. In the case of `CC(C)C[C@H](NC(=O)C1OC1C(=O)N[C@H](C)c1ccccc1)C(=O)N[C@@H](Cc1ccc(O)cc1)C(N)=O` (stereo partly drawn) [Compound 50], the Target was “Cat B”. `CC(C)C[C@H](NC(=O)C1O[C@H]1C(=O)NCCCCCCO)C(=O)N[C@@H](Cc1ccc(O)cc1)C(N)=O` (stereo partly drawn) [Compound 53] was tested, and the Target was “Cat B”. For `CC(C)CNC(=O)C1OC1C(=O)N[C@@H](CC(C)C)C(=O)N[C@@H](Cc1ccc(O)cc1)C(N)=O` (stereo partly drawn) [Compound 57], the Target was “Cat B”. With `CC(C)C[C@H](NC(=O)C1OC1C(=O)N[C@@H](C)c1ccccc1)C(=O)N[C@@H](Cc1ccc(O)cc1)C(N)=O` (stereo partly drawn) [Compound 58] the Target was “Cat B”. In the case of `CCOC(=O)C1OC1C(=O)N[C@@H](CC(C)C)C(=O)N[C@@H](Cc1ccc(O)cc1)C(N)=O` (stereo partly drawn) [Compound 59], the Target was “Cat B”. With `CC(C)C[C@H](NC(=O)[C@H]1OC1C(=O)NCCc1ccc(O)cc1)C(=O)NCCN1CCCCC1` (stereo partly drawn) [Compound 67] the Target was “Cat B”. In the case of `CCOC(=O)C1OC1C(=O)N(CC(=O)N[C@@H](Cc1ccc(O)cc1)C(N)=O)CC(C)C` (stereo partly drawn) [Compound 103], the Target was “Cat B”. With `CCC[C@H](NC(=O)[C@H]1O[C@@H]1C(=O)OCC)C(=O)NCc1cccc2ccccc12` [Compound 105] the Target was “General”. `CCC[C@H](NC(=O)C1O[C@@H]1C(=O)NCCc1ccc(-c2ccccc2)cc1)C(=O)NCCc1ccccn1` (stereo partly drawn) [Compound 106] was tested, and the Target was “Cat B”. With `CCC[C@H](NC(=O)[C@H]1O[C@@H]1C(=O)NCCc1ccc(O)cc1)C(=O)NCc1cccc2ccccc12` [Compound 111] the Target was “Cat Z”. In the case of `CCC[C@H](NC(=O)[C@H]1O[C@@H]1C(=O)O)C(=O)NCc1cccc2ccccc12` [Compound 114], the Target was “General”. `CCC[C@H](NC(=O)[C@@H]1O[C@H]1C(=O)O)C(=O)NCc1cccc2ccccc12` [Compound 115] was tested, and the Target was “Cat Z”. With `CCOC(=O)C1OC1C(=O)N[C@@H](Cc1ccc(C)cc1)C(=O)NCc1cccc2ccccc12` (stereo partly drawn) [Compound 119] the Target was “Cat Z”. In the case of `CCC[C@H](NC(=O)C1O[C@@H]1C(=O)NCCc1ccc(O)cc1)C(=O)NCCc1ccccn1` (stereo partly drawn) [Compound 120], the Target was “Cat B”. `Cc1ccc(C[C@H](NC(=O)C2O[C@@H]2C(=O)NCC(=O)O)C(=O)NCc2cccc3ccccc23)cc1` (stereo partly drawn) [Compound 121] was tested, and the Target was “Cat Z”. With `CCOC(=O)[C@H]1O[C@@H]1C(=O)N[C@@H](Cc1ccc(C)cc1)C(=O)NCc1cccc2ccccc12` [Compound 122] the Target was “Cat Z”. In the case of `CCC[C@H](NC(=O)C1O[C@@H]1C(=O)OCC)C(=O)NCCc1ccccn1` (stereo partly drawn) [Compound 123], the Target was “General”. In the case of `CCC[C@H](NC(=O)[C@@H]1OC1C(=O)OCC)C(=O)NCCc1ccccn1` (stereo partly drawn) [Compound 124], the Target was “General”. `CCOC(=O)C1O[C@H]1C(=O)N[C@@H](Cc1ccc(C)cc1)C(=O)NCCc1ccccn1` (stereo partly drawn) [Compound 126] was tested, and the Target was “General”.
